Results taken from patent US10123993B2, “Cyclic ureas as inhibitors of rock” (BRISTOL-MYERS SQUIBB COMPANY, priority 2015, dated 2018).

Target: ROCK2 (Homo sapiens, UniProt O75116)
Assay: ROCK2 kinase inhibition assay (Caliper LABCHIP, FITC peptide substrate)
Format: biochemical
Details: 5 μM ATP, 1.5 μM peptide substrate; value ranges
In short: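 Dose-response curves gave IC50 from inhibition of peptide phosphorylation, measured by LabChip separation after EDTA stop. Reactions used 1.5 μM FITC-labelled peptide, 5 μM ATP, 20 mM HEPES pH 7.5 with MgCl2, Brij-35, DTT, and under 2% DMSO.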

Chain of ROCK2 (O75116 whole entry, species assumed): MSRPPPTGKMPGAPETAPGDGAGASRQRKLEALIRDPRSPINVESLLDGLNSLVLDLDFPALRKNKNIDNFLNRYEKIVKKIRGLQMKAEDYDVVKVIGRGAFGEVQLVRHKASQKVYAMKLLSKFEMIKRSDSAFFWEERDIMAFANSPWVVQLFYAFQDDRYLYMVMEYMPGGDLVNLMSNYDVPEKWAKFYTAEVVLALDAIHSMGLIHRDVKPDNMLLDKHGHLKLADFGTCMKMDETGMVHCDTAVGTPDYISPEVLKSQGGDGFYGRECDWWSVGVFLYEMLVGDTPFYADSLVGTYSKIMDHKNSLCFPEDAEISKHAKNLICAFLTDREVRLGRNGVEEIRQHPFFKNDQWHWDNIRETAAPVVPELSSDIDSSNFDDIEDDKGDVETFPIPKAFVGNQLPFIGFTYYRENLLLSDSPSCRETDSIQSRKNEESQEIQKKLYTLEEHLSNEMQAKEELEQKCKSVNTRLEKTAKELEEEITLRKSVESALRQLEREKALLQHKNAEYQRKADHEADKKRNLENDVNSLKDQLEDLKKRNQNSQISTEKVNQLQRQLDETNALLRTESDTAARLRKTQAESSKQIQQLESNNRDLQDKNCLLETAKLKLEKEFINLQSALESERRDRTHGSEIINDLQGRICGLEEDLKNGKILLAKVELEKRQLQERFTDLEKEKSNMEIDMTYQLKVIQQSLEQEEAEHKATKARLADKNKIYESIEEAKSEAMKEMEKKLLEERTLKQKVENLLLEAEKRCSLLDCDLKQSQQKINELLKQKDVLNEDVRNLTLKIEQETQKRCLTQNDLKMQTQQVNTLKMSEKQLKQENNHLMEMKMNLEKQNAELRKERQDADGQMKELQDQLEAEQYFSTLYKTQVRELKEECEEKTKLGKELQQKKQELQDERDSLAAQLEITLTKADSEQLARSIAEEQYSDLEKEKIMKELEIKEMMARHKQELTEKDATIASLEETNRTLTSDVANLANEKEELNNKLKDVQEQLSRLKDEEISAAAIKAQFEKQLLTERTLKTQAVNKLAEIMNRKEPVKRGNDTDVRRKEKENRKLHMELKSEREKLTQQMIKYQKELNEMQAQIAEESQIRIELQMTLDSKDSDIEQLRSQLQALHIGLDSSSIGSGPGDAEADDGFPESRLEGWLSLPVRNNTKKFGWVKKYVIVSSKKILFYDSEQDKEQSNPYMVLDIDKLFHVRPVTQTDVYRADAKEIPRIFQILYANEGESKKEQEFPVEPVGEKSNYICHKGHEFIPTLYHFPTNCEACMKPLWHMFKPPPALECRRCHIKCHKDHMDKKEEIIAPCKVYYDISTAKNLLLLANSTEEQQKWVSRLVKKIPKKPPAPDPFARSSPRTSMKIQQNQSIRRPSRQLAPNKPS

COc1nc(N2CCN(Cc3cc(F)ccc3F)C2=O)ccc1-c1cn[nH]c1 [Example 246, 1-(2,5-difluorobenzyl)-3-(6-methoxy-5-(1H-pyrazol-4-yl)pyridin-2-yl)imidazolidin-2-one] was tested. Which IC50 did it give?
Its IC50 is 2.1 to 20 nM.

How did the IC50 turn out when COc1nc(N2CCN(Cc3cc(F)cc(F)c3)C2=O)ccc1-c1cn[nH]c1 [Example 247, 1-(3,5-difluorobenzyl)-3-(6-methoxy-5-(1H-pyrazol-4-yl)pyridin-2-yl)imidazolidin-2-one] was run?
The IC50 was less than 2 nM.

How did the IC50 turn out when COc1nc(N2CCN(Cc3cccc(F)c3C)C2=O)ccc1-c1cn[nH]c1 [Example 248, 1-(3-fluoro-2-methylbenzyl)-3-(6-methoxy-5-(1H-pyrazol-4-yl)pyridin-2-yl)imidazolidin-2-one] was run?
The IC50 was less than 2 nM.

For COc1nc(N2CCN(Cc3ccc(F)cc3C)C2=O)ccc1-c1cn[nH]c1 [Example 249, 1-(4-fluoro-2-methylbenzyl)-3-(6-methoxy-5-(1H-pyrazol-4-yl)pyridin-2-yl)imidazolidin-2-one], which IC50 is on record?
Its IC50 is 20.1 to 200 nM.

For COc1nc(N2CCN(Cc3cc(F)ccc3C)C2=O)ccc1-c1cn[nH]c1 [Example 250, 1-(5-fluoro-2-methylbenzyl)-3-(6-methoxy-5-(1H-pyrazol-4-yl)pyridin-2-yl)imidazolidin-2-one], which IC50 is on record?
The IC50 was 2.1 to 20 nM.

COc1cc(F)ccc1CN1CCN(c2ccc(-c3cn[nH]c3)c(OC)n2)C1=O [Example 251, 1-(4-fluoro-2-methoxybenzyl)-3-(6-methoxy-5-(1H-pyrazol-4-yl)pyridin-2-yl)imidazolidin-2-one] was tested. Which IC50 did it give?
The IC50 was 20.1 to 200 nM.

With COc1cccc(CN2CCN(c3ccc(-c4cn[nH]c4)c(OC)n3)C2=O)c1F [Example 252, 1-(2-fluoro-3-methoxybenzyl)-3-(6-methoxy-5-(1H-pyrazol-4-yl)pyridin-2-yl)imidazolidin-2-one] as the molecule, how does the IC50 read?
Its IC50 is 2.1 to 20 nM.

With COc1nc(N2CCN(Cc3cccnc3)C2=O)ccc1-c1cn[nH]c1 [Example 253] as the molecule, how does the IC50 read?
Its IC50 is 2.1 to 20 nM.

How did the IC50 turn out when COc1nc(N2CCN(CC3CCCO3)C2=O)ccc1-c1cn[nH]c1 (stereo not shown) [Example 254, 1-(6-methoxy-5-(1H-pyrazol-4-yl)pyridin-2-yl)-3-((tetrahydrofuran-2-yl)methyl)imidazolidin-2-one] was run?
The IC50 was 20.1 to 200 nM.

For COc1nc(N2CCN(Cc3noc(C)n3)C2=O)ccc1-c1cn[nH]c1 [Example 255, 1-((6-methoxy-5-(1H-pyrazol-4-yl)pyridin-2-yl)-3-(5-methyl-1,2,4-oxadiazol-3-yl)methyl)imidazolidin-2-one], which IC50 is on record?
Its IC50 is 200 to 2000 nM.

COc1nc(N2CCN(Cc3cccc(Cl)c3)C2=O)ccc1-c1cn[nH]c1 [Example 256, 1-(3-chlorobenzyl)-3-(6-methoxy-5-(1H-pyrazol-4-yl)pyridin-2-yl)imidazolidin-2-one] was tested. Which IC50 did it give?
Its IC50 is 2.1 to 20 nM.

With COc1nc(N2CCN(Cc3cccc(C)c3)C2=O)ccc1-c1cn[nH]c1 [Example 257, 1-(6-methoxy-5-(1H-pyrazol-4-yl)pyridin-2-yl)-3-(3-methylbenzyl)imidazolidin-2-one] as the molecule, how does the IC50 read?
Its IC50 is 2.1 to 20 nM.

How did the IC50 turn out when COc1cc(CN2CCN(c3ccc(-c4cn[nH]c4)cc3)C2=O)ccc1F [Example 263, 1-(4-(1H-pyrazol-4-yl)phenyl)-3-(4-fluoro-3-methoxybenzyl)imidazolidin-2-one] was run?
The IC50 was 2.1 to 20 nM.

How did the IC50 turn out when COc1c(F)cccc1CN1CCN(c2ccc(-c3cn[nH]c3)cc2)C1=O [Example 264, 1-(4-(1H-pyrazol-4-yl)phenyl)-3-(3-fluoro-2-methoxybenzyl)imidazolidin-2-one] was run?
Its IC50 is 20.1 to 200 nM.

With CCc1cc(N2CCN([C@H](C)c3cccc(OC)c3)C2=O)ccc1-c1cn[nH]c1 [Example 272, (R)-1-(3-ethyl-4-(1H-pyrazol-4-yl)phenyl)-3-(1-(3-methoxyphenyl)ethyl)imidazolidin-2-one] as the molecule, how does the IC50 read?
The IC50 was 2.1 to 20 nM.

Which IC50 does the source give for COc1cccc(CN2CCN(c3ccc(-c4cn[nH]c4)c(C)c3)C2=O)c1 [Example 273, 1-(3-methoxybenzyl)-3-(3-methyl-4-(1H-pyrazol-4-yl)phenyl)imidazolidin-2-one] here?
The IC50 was 2.1 to 20 nM.

COc1cc(F)cc(CN2CCN(c3ccc(-c4cn[nH]c4)c(C)c3)C2=O)c1 [Example 274, 1-(3-fluoro-5-methoxybenzyl)-3-(3-methyl-4-(1H-pyrazol-4-yl)phenyl)imidazolidin-2-one] was tested. Which IC50 did it give?
The IC50 was less than 2 nM.

Which IC50 does the source give for COc1cccc(CN2CCN(c3ccc(-c4cn[nH]c4)c(C(F)(F)F)c3)C2=O)c1 [Example 275, 1-(4-(1H-pyrazol-4-yl)-3-(trifluoromethyl)phenyl)-3-(3-methoxybenzyl)imidazolidin-2-one] here?
The IC50 was 20.1 to 200 nM.

COc1cc(F)cc(CN2CCN(c3ccc(-c4cn[nH]c4)c(C(F)(F)F)c3)C2=O)c1 [Example 276, 1-(4-(1H-pyrazol-4-yl)-3-(trifluoromethyl)phenyl)-3-(3-fluoro-5-methoxybenzyl)imidazolidin-2-one] was tested. Which IC50 did it give?
The IC50 was 20.1 to 200 nM.

COc1cccc(CN2CCN(c3ccc(-c4cn[nH]c4)c(C#N)c3)C2=O)c1 [Example 277, 5-(3-(3-methoxybenzyl)-2-oxoimidazolidin-1-yl)-2-(1H-pyrazol-4-yl)benzonitrile] was tested. Which IC50 did it give?
Its IC50 is 200 to 2000 nM.

COc1cc(F)cc(CN2CCN(c3ccc(-c4cn[nH]c4)c(C#N)c3)C2=O)c1 [Example 278, 5-(3-(3-fluoro-5-methoxybenzyl)-2-oxoimidazolidin-1-yl)-2-(1H-pyrazol-4-yl)benzonitrile] was tested. Which IC50 did it give?
Its IC50 is 20.1 to 200 nM.

Which IC50 does the source give for COc1cc(CN2CCN(c3ccc(-c4cn[nH]c4)c(C#N)c3)C2=O)ccc1F [Example 279, 5-(3-(4-fluoro-3-methoxybenzyl)-2-oxoimidazolidin-1-yl)-2-(1H-pyrazol-4-yl)benzonitrile] here?
The IC50 was 200 to 2000 nM.

With CCc1cc(N2CCN(Cc3cc(F)cc(OC)c3)C2=O)ccc1-c1cn[nH]c1 [Example 280, 1-(3-ethyl-4-(1H-pyrazol-4-yl)phenyl)-3-(3-fluoro-5-methoxybenzyl)imidazolidin-2-one] as the molecule, how does the IC50 read?
The IC50 was 2.1 to 20 nM.

How did the IC50 turn out when CCc1cc(N2CCN(Cc3ccc(F)c(OC)c3)C2=O)ccc1-c1cn[nH]c1 [Example 281, 1-(3-ethyl-4-(1H-pyrazol-4-yl)phenyl)-3-(4-fluoro-3-methoxybenzyl)imidazolidin-2-one] was run?
The IC50 was 2.1 to 20 nM.

With COc1cc(CN2CCN(c3ccc(-c4cn[nH]c4)c(C)c3)C2=O)ccc1F [Example 282, 1-(4-fluoro-3-methoxybenzyl)-3-(3-methyl-4-(1H-pyrazol-4-yl)-phenyl)imidazolidin-2-one] as the molecule, how does the IC50 read?
Its IC50 is 2.1 to 20 nM.

For COc1cc(CN2CCN(c3ccc(-c4cn[nH]c4)c(C(F)(F)F)c3)C2=O)ccc1F [Example 283, 1-(4-(1H-pyrazol-4-yl)-3-(trifluoromethyl)phenyl)-3-(4-fluoro-3-methoxybenzyl)imidazolidin-2-one], which IC50 is on record?
Its IC50 is 200 to 2000 nM.

For Cc1cc(N2CCN(Cc3cccc(OCC4CC4)c3)C2=O)ccc1-c1cn[nH]c1 [Example 284, 1-(3-(cyclopropylmethoxy)benzyl)-3-(3-methyl-4-(1H-pyrazol-4-yl)phenyl)imidazolidin-2-one], which IC50 is on record?
The IC50 was 20.1 to 200 nM.

How did the IC50 turn out when CCc1cc(N2CCN(Cc3cccc(OCC4CC4)c3)C2=O)ccc1-c1cn[nH]c1 [Example 285, 1-(3-(cyclopropylmethoxy)benzyl)-3-(3-ethyl-4-(1H-pyrazol-4-yl)phenyl)imidazolidin-2-one] was run?
The IC50 was 200 to 2000 nM.

How did the IC50 turn out when COc1cc(CN2C(=O)N(c3ccc(-c4cn[nH]c4)cn3)C[C@H]2CO)ccc1F [Example 311, (S)-1-(5-(1H-Pyrazol-4-yl)pyridin-2-yl)-3-(4-fluoro-3-methoxybenzyl)-4-(hydroxymethyl)imidazolidin-2-one] was run?
The IC50 was 20.1 to 200 nM.

COc1cc(F)cc(CN2C(=O)N(c3ccc(-c4cn[nH]c4)cn3)C[C@H]2CO)c1 [Example 312, (S)-1-(5-(1H-pyrazol-4-yl)pyridin-2-yl)-3-(3-fluoro-5-methoxybenzyl)-4-(hydroxymethyl)imidazolidin-2-one] was tested. Which IC50 did it give?
The IC50 was 2.1 to 20 nM.

COc1cc(F)cc(CN2C(=O)N(c3ccc(-c4cn[nH]c4)cn3)C[C@@H]2CO)c1 [Example 313, (R)-1-(5-(1H-pyrazol-4-yl)pyridin-2-yl)-3-(3-fluoro-5-methoxybenzyl)-4-(hydroxymethyl)imidazolidin-2-one] was tested. Which IC50 did it give?
Its IC50 is 20.1 to 200 nM.

For COc1cccc(CN2C(=O)N(c3ccc(-c4cn[nH]c4)cn3)C[C@H]2CO)c1 [Example 314, (S)-1-(5-(1H-pyrazol-4-yl)pyridin-2-yl)-4-(hydroxymethyl)-3-(3-methoxybenzyl)imidazolidin-2-one], which IC50 is on record?
The IC50 was 2.1 to 20 nM.

Which IC50 does the source give for COc1cccc(CN2CCN(c3ccc(-c4ccncc4F)c(OC)n3)C2=O)c1 [Example 316, 1-(3′-Fluoro-2-methoxy-[3,4′-bipyridin]-6-yl)-3-(3-methoxybenzyl)imidazolidin-2-one] here?
Its IC50 is 2.1 to 20 nM.

How did the IC50 turn out when COc1cccc(CN2CCN(c3ccc(-c4ccnc(F)c4)c(OC)n3)C2=O)c1 [Example 319, 1-(2′-fluoro-2-methoxy-[3,4′-bipyridin]-6-yl)-3-(3-methoxybenzyl)imidazolidin-2-one] was run?
Its IC50 is 2.1 to 20 nM.

How did the IC50 turn out when COc1cccc(CN2CCN(c3ccc(-c4c[nH]nc4C)c(OC)n3)C2=O)c1 [Example 320, 1-(6-methoxy-5-(5-methyl-1H-pyrazol-4-yl)pyridin-2-yl)-3-(3-methoxybenzyl)imidazolidin-2-one] was run?
The IC50 was 2.1 to 20 nM.

With O=c1n(Cc2cccc(F)c2)ccn1-c1ccc(-c2cn[nH]c2)cc1 [Example 321] as the molecule, how does the IC50 read?
The IC50 was 2.1 to 20 nM.

How did the IC50 turn out when COc1cccc(Cn2ccn(-c3ccc(-c4ccnc5[nH]ccc45)cc3)c2=O)c1 [Example 322, 1-(4-(1H-pyrrolo[2,3-b]pyridin-4-yl)phenyl)-3-(3-methoxybenzyl)-1H-imidazol-2(3H)-one] was run?
Its IC50 is 2.1 to 20 nM.

O=c1n(CCc2ccccc2F)ccn1-c1ccc(-c2cn[nH]c2)cc1 [Example 330, 1-(4-(1H-pyrazol-4-yl)phenyl)-3-(2-fluorophenethyl)-1H-imidazol-2(3H)-one] was tested. Which IC50 did it give?
The IC50 was 20.1 to 200 nM.

CC(c1ccccc1)n1ccn(-c2ccc(-c3cn[nH]c3)cc2)c1=O (stereo not shown) [Example 331, 1-(4-(1H-pyrazol-4-yl)phenyl)-3-(1-phenylethyl)-1H-imidazol-2(3H)-one] was tested. Which IC50 did it give?
Its IC50 is 2.1 to 20 nM.

With CC(c1ccccc1)n1ccn(-c2ccc(-c3cn[nH]c3)cc2)c1=O (stereo not shown) [Example 332, 1-(4-(1H-pyrazol-4-yl)phenyl)-3-(1-phenylethyl)-1H-imidazol-2(3H)-one] as the molecule, how does the IC50 read?
The IC50 was 20.1 to 200 nM.
